According to patent publication US20080199855A1, “Identification And Characterization Of A Subset of Glioblastomas Sensitive To Treatment With Imatinib” (priority 2004, published 2008):

Assays:
GBM culture 8 = assay: cells; settings: Homo sapiens, 96 h, read-out: growth inhibition (% reduction of increase in cell number)
GBM culture 30 = assay: cells; settings: Homo sapiens, 96 h, read-out: growth inhibition (% reduction of increase in cell number)
GBM culture 11 = assay: cells; settings: Homo sapiens, 96 h, read-out: growth inhibition (% reduction of increase in cell number)
Akt = assay: Compound I-induced change in Akt phosphorylation in GBM cultures (immunoblotting); assay type: cell-based, human; settings: 10 GBM cultures; 1 μM compound I for 1 h; 10% FCS
Experimental: (§1) Glioblastoma cell cultures were confluently plated in 12-well plate wells (Falcon). […] Samples, with normalized protein content, were subjected to SDS-PAGE using 12% gels. Control lysates from un-stimulated and PDGF-BB-stimulated PAE/Rβ cells were loaded on each gel. Samples were electrophoretically transferred to Hydrobond-C-Extra filters (Amersham Life Science). For detection of phosphorylated forms of ERK and Akt, filters were blocked for 1 h in Tris buffered saline pH 7.6 (TBS), 0.137 M NaCl and 0.0035 M Tris-HCl, containing 5% BSA, and incubated over night with 1 μg/ml anti phospho-p44/42 MAPK Thr202/Tyr204 (Cell Signaling Technology) or 1 μg/ml anti phospho-Akt Ser473 (Cell Signaling Technology) in TBS with 0.001% Tween-20 (TTBS). After three 10 min washes in TTBS, the filters were incubated for 1 h with horseradish peroxidase coupled sheep anti-rabbit antibody (Amersham Life Science) diluted 1:25000, and washed three times 10 min in TTBS. The antigens were detected using the Lumi-Light plus western blotting substrate (Roche) according to the manufacturer's instruction with an Intelligent Darkbox II digital scanner (FUJIFILM). […] Values were quantified by using the AIDA software version 3.10.039 (FUJIFILM). The relative expression and phosphorylation of ERK and Akt in the different GBM cultures, was determined by using the reference samples from the PAE/Rβ cells.

GBM culture 9 = assay: cells; settings: Homo sapiens, 96 h, read-out: growth inhibition (% reduction of increase in cell number)
GBM culture 35 = assay: cells; settings: Homo sapiens, 96 h, read-out: growth inhibition (% reduction of increase in cell number)
GBM culture 45 = assay: cells; settings: Homo sapiens, 96 h, read-out: growth inhibition (% reduction of increase in cell number)
GBM culture 21 = assay: cells; settings: Homo sapiens, 96 h, read-out: growth inhibition (% reduction of increase in cell number)
GBM culture 7 = assay: cells; settings: Homo sapiens, 96 h, read-out: growth inhibition (% reduction of increase in cell number)
GBM culture 31 = assay: cells; settings: Homo sapiens, 96 h, read-out: growth inhibition (% reduction of increase in cell number)
GBM culture 38 = assay: cells; settings: Homo sapiens, 96 h, read-out: growth inhibition (% reduction of increase in cell number)
GBM culture 13 = assay: Growth inhibition induced by compound I, GBM culture 13; settings: Homo sapiens, 96 h, read-out: growth inhibition (% reduction of increase in cell number)
ERK = assay: Compound I-induced change in ERK phosphorylation in GBM cultures (immunoblotting); assay type: cell-based, human; settings: 10 GBM cultures; 1 μM compound I for 1 h; 10% FCS
Experimental: as §1

GBM culture 34 = assay: cells; settings: Homo sapiens, 96 h, read-out: growth inhibition (% reduction of increase in cell number)
GBM culture 5 = assay: cells; settings: Homo sapiens, 96 h, read-out: growth inhibition (% reduction of increase in cell number)
GBM culture 27 = assay: cells; settings: Homo sapiens, 96 h, read-out: growth inhibition (% reduction of increase in cell number)
GBM culture 18 = assay: cells; settings: Homo sapiens, 96 h, read-out: growth inhibition (% reduction of increase in cell number)
GBM culture 6 = assay: cells; settings: Homo sapiens, 96 h, read-out: growth inhibition (% reduction of increase in cell number)

## Cc1ccc(NC(=O)c2ccc(CN3CCN(C)CC3)cc2)cc1Nc1nccc(-c2cccnc2)n1 [compound I]
GBM culture 8
  inhibition at 1 µM: 20 to 40%
GBM culture 30
  inhibition at 1 µM: < 15%
GBM culture 11
  inhibition at 1 µM: > 40%
Akt
  compound I-induced change in specific phosphorylation of Akt: only moderate changes
GBM culture 9
  inhibition at 1 µM: > 40%
GBM culture 35
  inhibition at 1 µM: < 15%
GBM culture 45
  inhibition at 1 µM: > 40%
GBM culture 21
  inhibition at 1 µM: < 15%
GBM culture 7
  inhibition at 1 µM: > 40%
GBM culture 31
  inhibition at 1 µM: > 40%
GBM culture 38
  inhibition at 1 µM: < 15%
GBM culture 13
  inhibition at 1 µM: 20 to 40%
ERK
  compound I-induced change in specific phosphorylation of ERK: only moderate changes
GBM culture 34
  inhibition at 1 µM: < 15%
GBM culture 5
  inhibition at 1 µM: < 15%
GBM culture 27
  inhibition at 1 µM: 20 to 40%
GBM culture 18
  inhibition at 1 µM: < 15%
GBM culture 6
  inhibition at 1 µM: > 40%
